Measurements taken from US5106610A, “Method for determining the diuretic potency of candidate drugs as inhibitors of the antidiuretic hormone-elicited water channel” (Childrens Medical Center Corporation, priority 1989, dated 1992).

Columns and labels:
ADH water channels = assay: Proton permeability (PH+) of F-dextran loaded endocytic vesicles containing ADH water channels, stopped-flow fluorescence after imposed pH gradient; format: biochemical, Bufo marinus
Excerpt: Endocytic vesicles from the bladder of Dominican toads were ADH stimulated and loaded with fluoroescein bound to dextran (F-dextran) following the procedures of Harris et.al., "Apical Membrane Vesicles of ADH-Stimulated Toad Bladder Are Highly Water Permeable,"Am. J. Physiol. In Press, (1989); Harris, H. W., et.al., "Fluorescent Markers to Study Membrane Retrieval in Antidiuretic Hormone-Treated Toad Urinary Bladder," Am. J. Physiol., 251:C274-C284 (1986). Briefly, the procedures were as follows.
Dominican toads (Bufo marinus), obtained from National Reagents, Bridgeport, CT, were employed. Urinary bladders of Bufo marinus were prepared and mounted on cannulas as small sacs. After a 20 minute interval of ADH stimulation (50 mU/ml), the apical surfaces of bladders were exposed to solutions containing 50 mg/ml of F-dextran (Av. Mol. Wt. 70,000 Daltons) and […], 30 Mm KCl, and […], pH 8.0, for an interval of 5 minutes followed by termination of ADH stimulation and incubation for an additional 10 minutes. The solution containing the F-dextran was then removed, the bladders rinsed to remove all extracellular F-dextran. The intermediate pellet fraction obtained from centrifugation of the cell was used. F-dextran loaded vesicles were washed repeatedly to remove F-dextran and partially purified by differential centrifugation. In the absence of ADH, no detectable fluorescence was present in this vesicle fraction despite apical membrane exposure to F-dextran.
Standard cuvette fluorescence measurements were performed using an SLM-Aminco 500C spectrofluorimeter (excitation wavelength 499 nm). Stopped-flow measurements were performed in a High Tech stopped-flow device (50 msec dead time) connected to a Photon Technologies Alphascan Fluorimeter. One syringe contained a concentrated vesicle suspension and antifluoroscein antibody while the other contained buffer with sufficient HCl to change the final extravesicular pH as indicated. Data from 3-5 determination performed on a single day were averages. Results were fitted to single exponentials and .tau. was converted to permeability using the following equation: […]
where JH + is the flux rate of protons in mole/sec, PH + is the permeability coefficient of protons in cm/sec, ΔC is the concentration gradient for protons across the vesicle membrane at the start of the experiment in mole/cm^3, and A is the surface area of a single F-dextran containing vesicle (7.1×10^-10 cm^2). See Harris, H. W., et.al., "Isolation and Characterization of Specialized Regions of Toad Urinary Bladder Apical Plasma Membrane Involved in the Water Permeability Response to Antidiuretic Hormone," J. Memb. Biol., 96:175-186 (1987). Jh + was calculated by multiplying 1/.tau. by the amount of buffer (in moles) in an individual vesicle (single vesicle volume was 1.41×10^-14 cm^3). .tau. is the mathematical term representing the time for the process to be 2/3 completed. Estimates of vesicle volume and surface area were calculated from dimensions of vesicles loaded with horseradish peroxides (HRP) instead of F-dextran.
The effect of pCMBS on the rate of pH change in F-dextran loaded vesicles was determined. The materials and procedures of Example 1 were employed, except as noted. […] The results are plotted in FIG. 3. As illustrated, preincubation of vesicles with pCMBS inhibited 54% of oH + in F-dextran loaded vesicles. Control pH + was 3.9±0.5×10^-3 cm/sec (n-5; p<0.005 compared to control; unpaired t test). […]

toad bladder [1] = settings: NEM pretreatment; cited from earlier work
[2] = tested on: human erythroycte membrane; settings: NEM pretreatment; cited from earlier work
toad bladder [3] = settings: cited from earlier work

## O=S(=O)(O)c1cc[c]([Hg][Cl])cc1 [pCMBS, parachloromercuribenzene sulfonate]
ADH water channels; 1 mM pCMBS, one hour preincubation at 4° C., vesicles with 17.6 mM HEPES pH 8.0, extravesicular pH lowered to 6.0
  inhibition of oH + (proton permeability) in F-dextran loaded vesicles: 54%

## CCN1C(=O)C=CC1=O [NEM, n-ethylmaleimide]
ADH water channels; NEM 2 mM, 1 h pretreatment on ice
  effect on pH + compared to control (significance): NS compared to control
ADH water channels; NEM 2 mM, pretreated 1 h in HEPES buffer on ice, paired control 5.6±0.2×10^-3
  pH + (proton permeability coefficient) after pretreatment: 6.2±0.9×10^-3 cm/sec
Toad bladder [1]
  inhibitory effect on water flux across the toad bladder: no inhibitory effect
[2]
  inhibitory effect on water flux across human erythrocyte membrane: no inhibitory effect

## O=C(CCc1ccc(O)cc1)c1c(O)cc(O)cc1O [Phloretin]
ADH water channels; phloretin 30 min prior to assay and present during stopped flow
  effect on apical membrane vesicle JH +: without effect
ADH water channels; vesicles exposed to phloretin 30 min prior to assay, stopped flow in continued presence, paired studies
  PH + (proton permeability coefficient) of treated vesicles: 2.6±0.4 ×10^-3 cm/sec
Toad bladder [3]
  effect on ADH-stimulated urea flux in toad bladder: inhibits
